This is an account of results in patent US10000473B2, “Indazole derivatives useful as glucagon receptor antagonists” (Janssen Pharmaceutica NV, priority 2016, dated 2018).

Bounds are passed on as bounds.

T1 sequence (P47871 26-477): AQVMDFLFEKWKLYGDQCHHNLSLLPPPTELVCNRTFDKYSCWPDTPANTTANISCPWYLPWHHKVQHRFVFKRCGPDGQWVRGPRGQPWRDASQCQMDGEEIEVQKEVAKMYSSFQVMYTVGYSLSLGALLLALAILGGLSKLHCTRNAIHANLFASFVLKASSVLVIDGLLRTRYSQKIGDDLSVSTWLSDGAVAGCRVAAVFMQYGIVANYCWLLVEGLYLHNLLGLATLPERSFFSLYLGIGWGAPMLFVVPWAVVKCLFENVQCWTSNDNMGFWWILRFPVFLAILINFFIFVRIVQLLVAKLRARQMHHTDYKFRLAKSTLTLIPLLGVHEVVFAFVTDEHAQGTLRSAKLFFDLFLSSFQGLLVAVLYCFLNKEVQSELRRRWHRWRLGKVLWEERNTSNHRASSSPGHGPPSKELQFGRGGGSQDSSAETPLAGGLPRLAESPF

The test addresses T1, human GCGR (Homo sapiens, UniProt P47871).
T1 construct: expressed in transfected cells; host or cells: HEK293 (hGluc-1HEK), pcDNA3.1, G418 selection
As to the kind of experiment: Cellular functional assay, cAMP readout (glucagon-stimulated cAMP, LANCE TR-FRET). It is filed as cell-based. The note with it: HEK293 cells stably expressing full-length human GCGR; glucagon 100 pM; IC50 converted to Ki; read-out: Inhibition of cAMP Ki. On the procedure: IC50 Values in Cellular Functional Assays: cAMP Readout
Full-length human GCGR (Accession Number: NM000160) subcloned into pcDNA3.1 was stably transfected into HEK293 cells (hGluc-1HEK) and maintained under G418 selection (500 μg/mL). Cell cultures were maintained in DMEM/F12 media supplemented with 10% FBS and 1% GlutaMax™ Supplement (Available from ThermoFisher Scientific, catalog #35050061). Glucagon stimulated cAMP was quantified using LANCE technology as per manufacturer instructions. On the day of the experiment, spent media was removed and cells were washed with Hank's Buffered Saline solution (HBSS), and cells harvested with non-enzymatic cell dissociation solution, then washed once with HBSS. Cells were re-suspended in stimulation buffer at a concentration of 0.83×10^6 cells/ml and cAMP detection antibody was added. 6 μl/well of this solution was then dispensed in a 384 well plate (cell density 5000 cells/well). Test compound was serially diluted in DMSO and 50 nl were dispensed on top of the cell solution and allowed to incubate for 30 minutes. 6 μl of a 2× glucagon solution (final concentration in assay 100 pM) was then added and the reaction was terminated after 5 minutes with the addition of detection mix. The resulting mixture was incubated, protected from light for 1.5 h. cAMP levels were quantified by TR-FRET in an EnVision instrument against a known standard. IC50's were generated by using a non-linear regression macro driven in Excel and converted to Ki values.
On the technique in general: In TR-FRET formats the signal depends on donor and acceptor labels being close together.
The Ki is a measure of affinity in units of concentration, obtained from inhibition or displacement. `CC(C)(C)CC(c1ccc(C(=O)NCCC(=O)O)cc1)n1cc2cc(-c3ccc(C(F)(F)F)cc3)ccc2n1` (stereo not drawn) [compound 61]: the inhibition constant (Ki) was 52 nM. The result for `COc1c(-c2ccc(C(F)(F)F)cc2C)ccc2nn(C(CC(C)C)c3ccc(C(=O)NCCC(=O)O)cc3)cc12` (stereo not drawn) [Compound #233, 3-(4-(1-(4-Methoxy-5-(2-methyl-4-(trifluoromethyl)phenyl)-2H-indazol-2-yl)-3-methylbutyl)benz-amido)propanoic acid] reads 24 nM. With `CC(C)CC(c1ccc(C(=O)NCCC(=O)O)cc1)n1cc2cc(-c3cnc4ccccc4c3)ccc2n1` (stereo not drawn) [compound 117], the Ki was 1000 nM. As for `O=C(O)CCNC(=O)c1ccc(C(CCC(F)(F)F)n2ncc3cc(-c4ccc(C(F)(F)F)cc4)ccc32)cc1` (stereo not drawn) [Compound #75, 3-[[4-[4,4,4-Trifluoro-1-[5-[4-(trifluoromethyl)phenyl]indazol-1-yl]butyl]benzoyl]amino]propanoic acid], the Ki is 235 nM.

For the compound `O=C(O)CCNC(=O)c1ccc(C(CC2CCC2)n2cc3cc(-c4ccc(C(F)(F)F)cc4)ccc3n2)cc1` (stereo not drawn) [compound 211], the inhibition constant (Ki) stood at 85 nM. On to `CC(C)(F)CC(c1ccc(C(=O)NCCC(=O)O)cc1)n1cc2cc(-c3ccc(C(F)(F)F)cc3)ccc2n1` (stereo not drawn) [Compound #256, 3-(4-(3-Fluoro-3-methyl-1-(5-(4-(trifluoromethyl)phenyl)-2H-indazol-2-yl)butyl)benzamido)propanoic acid], for which the inhibition constant Ki was 200 nM. The result for `COc1c(-c2ccc(C(F)(F)F)cc2Cl)ccc2nn([C@@H](CC(C)C)c3ccc(C(=O)NCCC(=O)O)cc3)cc12` [Compound #150, 3-[[4-[(1S)-1-[5-[2-Chloro-4-(trifluoromethyl)phenyl]-4-methoxy-indazol-2-yl]-3-methyl-butyl]benzoyl]amino]propanoic acid] reads 35 nM; that for `CC(C)CCC(c1ccc(C(=O)NCCC(=O)O)cc1)n1cc2cc(-c3ccc(C(C)(C)C)cc3)ccc2n1` (stereo not drawn) [Compound #227, 3-(4-(1-(5-(4-(tert-Butyl)phenyl)-2H-indazol-2-yl)-4-methylpentyl)benzamido)propanoic acid], 330 nM. For the compound `Cc1ccc2sc(-c3ccc4c(cnn4C(CC(C)C)c4ccc(C(=O)NCCC(=O)O)cc4)c3)cc2c1` (stereo not drawn) [compound 230], the inhibitory constant (Ki) is 280 nM. The result for `Cc1ccc(-c2ccc3nn(C(CC(C)C)c4ccc(C(=O)NCCC(=O)O)cc4)cc3c2C)c(Cl)c1` (stereo not drawn) [Compound #148, 3-(4-(1-(5-(2-Chloro-4-methylphenyl)-4-methyl-2H-indazol-2-yl)-3-methylbutyl)benzamido)propanoic acid] reads 57 nM; that for `O=C(O)CCNC(=O)c1ccc(C(c2ccc(C(F)(F)F)cc2)n2cc3cc(-c4ccc(C(F)(F)F)cc4)ccc3n2)cc1` (stereo not drawn) [Compound #66, 3-(4-((4-(Trifluoromethyl)phenyl)(5-(4-(trifluoromethyl)phenyl)-2H-indazol-2-yl)methyl)benzamido)propanoic acid], 600 nM. The same measure for `CC(C)CCC(c1ccc(C(=O)NCCC(=O)O)cc1)n1ncc2cc(-c3ccc(C(C)(C)C)cc3)ccc21` (stereo not drawn) [Compound #23, 3-(4-(1-(5-(4-(tert-Butyl)phenyl)-1H-indazol-1-yl)-4-methylpentyl)benzamido)propanoic acid]: 144 nM; for `CCCCCCC(c1ccc(C(=O)NCCC(=O)O)nc1)n1ncc2cc(-c3ccc(C(F)(F)F)cc3)ccc21` (stereo not drawn) [compound 193]: 155 nM; for `Cc1cc2c(cnn2C(CC(C)C)c2ccc(C(=O)NCCC(=O)O)cc2)cc1-c1cc2cc(F)ccc2s1` (stereo not drawn) [Compound #158, 3-[[4-[1-[5-(5-Fluorobenzothiophen-2-yl)-6-methyl-indazol-1-yl]-3-methyl-butyl]benzoyl]amino]propanoic acid]: 190 nM. Turning to `Cc1cc(Cl)ccc1-c1cc2cn(C(CC(C)C)c3ccc(C(=O)NCCC(=O)O)nc3)nc2cc1Cl` (stereo not drawn) [Compound #140, 3-[[5-[1-[6-Chloro-5-(4-chloro-2-methyl-phenyl)indazol-2-yl]-3-methyl-butyl]pyridine-2-carbonyl]amino]propanoic acid], the Ki was found to be 125 nM.

As to `CCCCCCC(c1ccc(C(=O)NCCC(=O)O)cc1)n1cc2cc(-c3ccc(C(C)(C)C)cc3)ccc2n1` (stereo not drawn) [compound 86], the Ki amounted to 136 nM. With `Cc1cc(C(F)(F)F)ccc1-c1ccc2nn(C(CC(C)C)c3ccc(C(=O)NCCC(=O)O)nc3)cc2c1C(F)(F)F` (stereo not drawn) [Compound #246, 3-(5-(3-Methyl-1-(5-(2-methyl-4-(trifluoromethyl)phenyl)-4-(trifluoromethyl)-2H-indazol-2-yl)butyl)picolinamido)propanoic acid], the inhibitory constant (Ki) was above 5200 nM.

Take `Cc1ccc(-c2ccc3nn(C(CC(C)C)c4ccc(C(=O)NCCC(=O)O)cc4)cc3c2C)c(C)c1` (stereo not drawn) [Compound #143, 3-(4-(1-(5-(2,4-Dimethylphenyl)-4-methyl-2H-indazol-2-yl)-3-methylbutyl)benzamido)propanoic acid]: the Ki amounted to 24 nM. With `CC(C)CC(c1ccc(C(=O)NCCC(=O)O)nc1)n1ncc2cc(-c3ccc(C(F)(F)F)cc3Cl)ccc21` (stereo not drawn) [Compound #43, 3-(5-(1-(5-(2-Chloro-4-(trifluoromethyl)phenyl)-1H-indazol-1-yl)-3-methylbutyl)picolinamido)propanoic acid], the Ki amounted to 175 nM. The result for `CC(C)CC(c1ccc(C(=O)NCCC(=O)O)nc1)n1ncc2cc(-c3cc4ccccc4o3)ccc21` (stereo not drawn) [Compound #79, 3-(5-(1-(5-(Benzofuran-2-yl)-1H-indazol-1-yl)-3-methylbutyl)picolinamido)propanoic acid] reads 500 nM.

As to `O=C(O)CCNC(=O)c1ccc(C(CC2CCCCC2)n2cc3cc(-c4ccc(C(F)(F)F)cc4)ccc3n2)cc1` (stereo not drawn) [compound 92], the inhibition constant Ki was 63 nM. Consider `COc1c(-c2ccc(C(F)(F)F)cc2Cl)ccc2c1cnn2[C@@H](CC(C)C)c1ccc(C(=O)NCCC(=O)O)cc1` [Compound #201, 3-[[4-[(1S)-1-[5-[2-Chloro-4-(trifluoromethyl)phenyl]-4-methoxy-indazol-1-yl]-3-methyl-butyl]benzoyl]amino]propanoic acid], for which the Ki was found to be 30 nM. The same measure for `Cc1cc(Cl)ccc1-c1ccc2c(cnn2C(CC2CCCCC2)c2ccc(C(=O)NCCC(=O)O)cc2)c1` (stereo not drawn) [compound 194]: 210 nM. The result for `Cc1cc(Cl)ccc1-c1ccc2nn(C(CC(C)C)c3ccc(C(=O)NCCC(=O)O)cc3)cc2c1` (stereo not drawn) [Compound #168] reads 191 nM; that for `CCCCCC(c1ccc(C(=O)NCCC(=O)O)cc1)n1cc2cc(-c3ccc(C(F)(F)F)cc3)ccc2n1` (stereo not drawn) [compound 171], 133 nM; that for `CCCCCCC(c1ccc(C(=O)NCCC(=O)O)nc1)n1ncc2cc(-c3ccc(Cl)cc3C)ccc21` (stereo not drawn) [compound 244], 200 nM. For `CC(C)CC(c1ccc(C(=O)NCCC(=O)O)cc1)n1cc2cc(-c3cc4ccccc4s3)ccc2n1` (stereo not drawn) [compound 120], the Ki was 58 nM. The result for `Cc1cc(C(F)(F)F)ccc1-c1ccc2c(cnn2C(CC(C)C)c2ccc(C(=O)NCCC(=O)O)nc2)c1C` (stereo not drawn) [Compound #258, 3-(5-(3-Methyl-1-(4-methyl-5-(2-methyl-4-(trifluoromethyl)phenyl)-1H-indazol-1-yl)butyl)picolinamido)propanoic acid] reads 65 nM; that for `CCCCCC(c1ccc(C(=O)NCCC(=O)O)cc1)n1cc2cc(-c3ccc(C(C)(C)C)cc3)ccc2n1` (stereo not drawn) [compound 170], 245 nM. The same measure for `O=C(O)CCNC(=O)c1ccc(C(C2CCCCC2)n2cc3cc(-c4ccc(C(F)(F)F)cc4Cl)ccc3n2)cc1` (stereo not drawn) [compound 98]: 83 nM; for `O=C(O)CCNC(=O)c1ccc(C(CC2CCCC2)n2ncc3cc(-c4ccc(C(F)(F)F)cc4)ccc32)cc1` (stereo not drawn) [compound 208]: 175 nM; for `O=C(O)CCNC(=O)c1ccc(C(CC2CCCC2)n2ncc3cc(-c4ccc(C(F)(F)F)cc4)ccc32)cn1` (stereo not drawn) [compound 199]: 310 nM. With `CC(C)CC(c1ccc(C(=O)NCCC(=O)O)nc1)n1cc2cc(-c3ccc(Cl)cc3Cl)ccc2n1` (stereo not drawn) [Compound #83, 3-(5-(1-(5-(2,4-Dichlorophenyl)-2H-indazol-2-yl)-3-methylbutyl)picolinamido)propanoic acid], the Ki is 336 nM.

Turning to `Cc1cc(Cl)ccc1-c1ccc2c(cnn2C(CC(C)(C)C)c2ccc(C(=O)NCCC(=O)O)nc2)c1` (stereo not drawn) [compound 238], the Ki was 210 nM. The result for `Cc1cc(C(F)(F)F)ccc1-c1ccc2nn(C(CCC(F)(F)F)c3ccc(C(=O)NCCC(=O)O)cc3)cc2c1` (stereo not drawn) [Compound #50, 3-[[4-[4,4,4-Trifluoro-1-[5-[2-methyl-4-(trifluoromethyl)phenyl]indazol-2-yl]butyl]benzoyl]amino]propanoic acid] reads 47 nM. As to `Cc1cc(Cl)ccc1-c1ccc2nn(C(CC(C)C)c3ccc(C(=O)NCCC(=O)O)nc3)cc2c1` (stereo not drawn) [Compound #252, 3-(5-(1-(5-(4-Chloro-2-methylphenyl)-2H-indazol-2-yl)-3-methylbutyl)picolinamido)propanoic acid], the Ki came to 271 nM.
